Reference: patent US20090203780A1, “Use of a Polyunsaturated Fatty Acid Compound” (priority 2006, published 2009)

Tests used:
[1] = tested on: enteroendocrine STC1-1 cell line; assay: CCK release from intestinal cells (in-vitro trial, CCK RIA); format: cell-based; parameters: CCK release (Effects of fatty acids on CCK release): unit not given here; details: for CCK release (Effects of fatty acids on CCK release): 100 microM, free fatty acid form, 1 hour incubation, RIA of supernatant, measured in 6-fold, ethanol baseline 53
Description: The relative CCK release by a number of different compounds was determined in an in-vitro trial to measure the effect of various free fatty acids on CCK release from intestinal cells.
The enteroendocrine STC1-1 cell line was cultivated at 37° C. in a 5% CO2, 95% air atmosphere in standard culture medium (DMEM). Cells were routinely passaged upon reaching 70-80% confluency by washing the cell layer with PBS and incubating with a solution of trypsin-EDTA. Plating density of 2×10^6 cells by 75 cm^2 was used for routine subculture.
STC1 cells were seeded into 6-well culture plates and incubated with control culture medium, with or without the tested agents, for 1 hour. All agents were tested at a 100 μM concentration in the free fatty acid form. Since fatty acids were diluted into ethanol the effect of ethanol was tested and indicated the baseline CCK levels. […] Effects of bombesin was used as positive control. At the end of incubation the supernatant was collected, centrifuged and immediately frozen at −20° C. for RIA.
Cell viability was checked by microscopic analysis using an MTT cytotoxicity assay, and in addition LDH release was measured.
CCK release was measured using a standard CCK RIA and effects of fatty acids were measured in 6-fold.

[2] = tested on: enteroendocrine STC1-1 cell line; details: negative control fatty acid; cited from earlier work

Compound	CCK release (Effects of fatty acids on CCK release) [1]	CCK release compared with other fatty acids (in words) ([1]; 100 μM, 1 hour)	Induction of CCK (already known) [2]
CCCCCC/C=C/C=C/CCCCCCCC(=O)O (single isomer, unassigned) [CLA 9, 11 isomer]	135	–	–
CCCCCC=CC=CCCCCCCCCC(=O)O (single isomer, unassigned) [CLA 10, 12 isomer]	133	–	–
CCCC/C=C/C=C/C=C\CCCCCCCC(=O)O [Alpha-eleostearic acid (18:3), Alpha-eleostearic acid]	212	–	–
CC/C=C\C/C=C\C/C=C\CCCCCCCC(=O)O [Alpha-linolenic acid (18:3), Alpha-linolenic acid]	177	–	–
CCCCCC=CCC=CCC=CCC=CCCCC(=O)O [Arachidonic acid (20:4), 5,8,11,14-eicosatetraenoic acid]	392	higher level of CCK release than other related fatty acids	–
CCCCCCCCCC(=O)O [Capric acid]	43	–	does not induce CCK
CC/C=C\C/C=C\C/C=C\C/C=C\C/C=C\CCCC(=O)O [Eicosapentanoic acid (20:5), Eicosapentanoic acid]	164	–	–
CCCCC=CC=CC=CCCCCCCCC(=O)O [Gamma-eleostearic acid (18:3), Gamma-eleostearic acid]	126	–	–
CCCCC/C=C\C/C=C\C/C=C\CCCCC(=O)O [Gamma-linolenic acid (18:3), Gamma-linolenic acid]	140	–	–
CC/C=C\C/C=C\C/C=C\CCCC/C=C\CCCC(=O)O [Juniperonic acid (20:4), Juniperonic acid]	97	–	–
CCCCCCCCCCCC(=O)O [Lauric acid]	118	–	–
CCCCC/C=C\C/C=C\CCCCCCCC(=O)O [Linoleic acid (18:2), Linoleic acid]	68	–	–
CCCCCCCC/C=C\CCCCCCCC(=O)O [Oleic acid (18:1), Oleic acid]	90	–	–
CCCC\C=C/C=C/C=C\CCCCCCCC(=O)O [Punicic acid (18:3), Punicic acid]	320	–	–
CCCCC/C=C\C/C=C\CCCC/C=C\CCCC(=O)O [Sciadonic acid (20:3), Sciadonic acid]	79	–	–
CC/C=C\C/C=C\C/C=C\C/C=C\CCCCC(=O)O [Stearidonic acid (18:4), Stearidonic acid]	69	–	–
CCCCCCCC/C=C\CC/C=C\CCCC(=O)O [Taxoleic acid (18:2)]	82	–	–
conjugated linoleic acid [CLA]	87	–	–
